Experimental data: patent US20260191793A1, “HBV SPECIFIC EXOSOMES AND USES THEREOF” (priority 2022, published 2026)

Tested on: HBV replication in HepG2/2.2.15 cells
Experiment: Antiviral efficiency of synthetic gRNA/Cas9 RNPs in HepG2/2.2.15 cells (HBsAg/HBeAg ELISA, HBV mRNA and HBV DNA real-time PCR)
Type: cell-based, Hepatitis B virus (HBV)
Set-up: reduction in HBsAg expression / reduction of HBV mRNA expression: concentration or dose not given beside the values
Conditions: for reduction of HBV mRNA expression: HepG2/2.2.15 cells, real-time PCR, vs gRNAc; for reduction in HBsAg expression: HepG2/2.2.15 supernatant, 3 days after nucleofection, ELISA, vs scrambled gRNAc; for antiviral efficacy among the 9 gRNAs tested: HepG2.2.15 cells
Experimental: The HepG2.2.15 Human Hepatoblastoma cell line (Cat #SCC249, MilliporeSigma, Burlington, MA) is a traditional HBV cellular model that is widely used for studying HBV infection and drug development. HepG2.2.15 cells display constitutive HBV RNA transcription and DNA replication, but a lesser detection of cccDNA by Southern blot and PCR detection. The HepG2/2.2.15 cells were cultured in DMEM (Cat #MT10013CV, Fisher Scientific, Waltham, MA) supplemented with 10% Fetal bovine serum, penicillin, and streptomycin (50 ug/ml each; Fisher Scientific) and maintained at 37° C. and 5% CO2 atmosphere. The Amaxa Cell Line Nucleofector Kit V (Lonza VCA-1003) was used to deliver gRNA/Cas9 into HepG2/2.2.15 cells stably expressing HBV. For each transfection, 160 μM gRNA and 160 μM tracrRNA were first incubated at 37° C. for 30 minutes, followed by adding 80 μM Cas9 protein and incubating at 37° C. for 15 minutes. Approximately 40 μM of the gRNA/Cas9 complex was transfected into HepG2/2.2.15 cells (5×10^5) following the manufacturer's instructions. After 72 hours, the culture supernatants were harvested to measure HBV antigens by ELISA, and the cell pellets were used to determine HBV DNA or mRNA levels by real-time-PCR.
The levels of HBsAg and HBeAg in the supernatants of cell cultures were determined by ELISA (Cat #KA0286 and NBP2-600029, Novus Biologicals, Littleton, CO) according to the manufacturer's protocol. The optical density of antigen levels was measured at 450 nm using a microplate spectrophotometer. The samples were run in triplicate, and the experiments were repeated at least three times.
Total RNA was extracted from the cell pellets by the RNeasy Mini kit (Cat #74104, QIAGEN, Germantown, MD), and 1 μg RNA was converted to cDNA using the Applied Biosystems High-Capacity cDNA Reverse Transcription Kit (Cat #43-688-14, ThermoFisher, Waltham, MA). Quantitative real-time PCR (real-time-qPCR) was performed using iTaq Universal SYBR Green Supermix (Cat #1725124, Bio-Rad, Hercules, CA). The PCR primers were: HBV mRNA forward, 5′-[…]-3′ (SEQ ID NO: 52), reverse, 5′-[…]-3′ (SEQ ID NO: 53); HBV pgRNA forward 5′-[…]-3′ (SEQ ID NO: 54), reverse 5′-[…]-3′ (SEQ ID NO: 55); and GAPDH forward 5′-[…]-3′ (SEQ ID NO: 56), reverse 5′-[…]-3′ (SEQ ID NO: 57). The gene expression levels were determined by the […] method and values were normalized to GAPDH expression as an internal control.
Total and protein-free HBV DNAs were extracted from whole cell lysate using the Hirt DNA method according to a previously published protocol. For HBV cccDNA analysis, the protein-free DNA was treated with 10 units of T5 exonuclease (NEB) at 37° C. for 30 min, followed by 95° C. for 5 min, and diluted 4-fold with nuclease-free water. Next, the cccDNA was cleaned with a DNA clean and concentrator kit (ZYMO Research, Irvine, CA) and used for PCR. HBV total DNA and cccDNA were analyzed by real-time PCR using a TaqMan PCR assay. The primers and probe used to amplify HBV total DNA were: HBV total DNA forward: 5′-[…]-3′ (SEQ ID NO: 58), reverse 5′-[…]-3′ (SEQ ID NO: 59), and internal probe: 5′-FAM-[…]-TAMRA-3′ (SEQ ID NO: 60). The primers and probe used to amplify HBV cccDNA (Genotype D, subtype ayw) were: forward: 5′-[…]-3′ (SEQ ID NO: 61), reverse 5′-[…]-3′ (SEQ ID NO: 62), and internal probe 5′-FAM-[…]-TAMRA-3′ (SEQ ID NO: 63). The PCR reactions were performed in 20 μl volumes and contained 2 μl DNA. The PCR conditions were: 95° C. for 10 min, followed by 45 cycles of 95° C. for 15 s and 64° C. for 30 s. The DNA levels were determined by the […] method and values were normalized to the control group.
Because the hepatoma cell line HepG2/2.2.15 is a traditional HBV cellular model used to test the efficacy and cytotoxicity of anti-HBV drugs, the synthetic gRNA/Cas9 RNPs were tested for their antiviral efficiency in HepG2/2.2.15 cells. […]

Row | Sequence | reduction of HBV mRNA expression | reduction in HBsAg expression [%] | antiviral efficacy among the 9 gRNAs tested
1 | GGTCTCCATGCGACGTGCAGNGG [gRNA9] | ~ 50% | 50 | most specific and potent antiviral efficacy
2 | GTTATCGCTGGATGTGTCTGNGG (guide GUUAUCGCUGGAUGUGUCUGNGG; complexed with Cas9 protein, chemistry not fully specified) [gRNA5, tested as synthetic gRNA/Cas9 RNP] | ~ 50% | 50 | most specific and potent antiviral efficacy
